Where two headings read alike, the source gives them in different places. Blank lines part the entries; values can stand above or below the compound they belong to.
Experiments:
A431 cells = assay: In vitro growth inhibition (MTT assay) in A431 cells; assay type: cell-based, human; settings: read-out: Inhibition of cell growth IC50
Protocol: This assay measures the amount of MTT reduction by mitochondrial dehydrogenase and assumes that cell viability (corresponding to the reductive activity) is proportional to the production of purple formazan that is measured spectrophotometrically.
(§1) Cell line. The in vitro biological studies were established using the human epidermoid vulvar carcinoma A431 cell line, which overexpresses EGFR. Cells were available in our laboratory from previous studies. Cells were maintained in high glucose D-MEM medium with L-glutamine (PAA Laboratories GmbH, Pasching, Austria) and supplemented with 10% fetal bovine serum (PAA Laboratories GmbH) and penicillin/streptomycin (PAA Laboratories GmbH) 100 UI/100 μg per mL, in 5% CO2 incubator at 37 °C.
The in vitro cytotoxicity of the synthesized ligands and their rhenium complexes was determined by the MTT method. The A431 cells were seeded in 96-well plates at a density of 4000 cells per 100 μL per well and incubated for 24 h so that they were attached to the wells. After 24 h, the studied derivatives were dissolved in DMSO ([…]) and further diluted in D-MEM in various concentrations. […] The six concentrations of each derivative and control existed quadrupled into the experiment. The derivatives and the cells were incubated for 72 h. After three days, the medium was removed, and the cells were incubated […] in the presence of MTT (1 mg/mL 3-[4,5-dimethylthiazol-2-yl]-2,5-diphenyltetrazolium bromide, Sigma, Saint Louis, MO, USA) in RPMI (PAA Laboratories GmbH, Pasching, Austria) without phenol red for 2 h at 37 °C. The MTT solution was removed, and 2-propanol was added to each well to stop the cleavage of the tetrazolium ring by dehydrogenase enzymes which convert MTT to an insoluble purple formazan in living cells. The plates were then agitated at room temperature for about 15–20 min, and the level of the colored formazan derivative was determined by measuring optical density (OD) on an ELISA reader (540/620 nm). […] Cell proliferation assay was performed three times for each compound.

EGFR = target: T1, EGFR (Homo sapiens, UniProt P00533); assay: Inhibition of EGFR phosphorylation in intact A431 cells (immunoblotting); assay type: cell-based; settings: 2 h compound then EGF 20 ng/mL 5 min, Western blot
T1 construct: by immunoblotting in intact A431 cells that overexpress EGFR; endogenous in cells; host or cells: A431 (human epidermoid vulvar carcinoma)
T1 sequence (P00533 25-1210): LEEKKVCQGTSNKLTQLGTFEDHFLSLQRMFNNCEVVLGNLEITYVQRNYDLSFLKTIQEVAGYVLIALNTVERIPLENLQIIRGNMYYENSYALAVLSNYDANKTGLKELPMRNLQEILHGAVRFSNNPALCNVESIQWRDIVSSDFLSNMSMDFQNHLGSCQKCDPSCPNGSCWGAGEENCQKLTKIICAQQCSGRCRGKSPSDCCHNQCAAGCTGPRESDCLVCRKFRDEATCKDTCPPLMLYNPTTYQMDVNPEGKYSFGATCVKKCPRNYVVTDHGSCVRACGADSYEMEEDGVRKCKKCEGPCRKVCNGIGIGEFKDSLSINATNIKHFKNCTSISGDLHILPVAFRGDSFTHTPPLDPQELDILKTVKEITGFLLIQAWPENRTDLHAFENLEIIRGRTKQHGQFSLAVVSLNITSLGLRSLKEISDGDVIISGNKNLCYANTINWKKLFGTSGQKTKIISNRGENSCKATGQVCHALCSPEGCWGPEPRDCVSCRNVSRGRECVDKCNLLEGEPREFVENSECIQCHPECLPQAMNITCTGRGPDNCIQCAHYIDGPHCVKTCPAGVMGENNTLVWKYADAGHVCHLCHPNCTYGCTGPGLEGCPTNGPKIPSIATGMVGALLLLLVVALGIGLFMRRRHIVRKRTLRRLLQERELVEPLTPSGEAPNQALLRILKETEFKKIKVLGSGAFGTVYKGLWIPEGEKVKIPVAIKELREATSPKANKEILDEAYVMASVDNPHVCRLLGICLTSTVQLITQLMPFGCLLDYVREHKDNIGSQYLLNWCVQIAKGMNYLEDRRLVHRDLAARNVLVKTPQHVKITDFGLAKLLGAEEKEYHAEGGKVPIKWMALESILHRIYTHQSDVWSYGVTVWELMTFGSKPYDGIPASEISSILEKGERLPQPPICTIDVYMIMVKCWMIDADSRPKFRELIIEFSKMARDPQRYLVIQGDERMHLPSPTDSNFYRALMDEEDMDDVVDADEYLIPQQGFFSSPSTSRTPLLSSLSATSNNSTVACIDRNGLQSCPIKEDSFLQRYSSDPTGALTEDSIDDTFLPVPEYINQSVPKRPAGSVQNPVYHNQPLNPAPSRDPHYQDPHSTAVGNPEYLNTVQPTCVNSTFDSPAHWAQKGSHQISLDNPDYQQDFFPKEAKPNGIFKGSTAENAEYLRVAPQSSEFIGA
Protocol: Complex 5a was evaluated for its potency to inhibit EGFR phosphorylation in various concentrations by immunoblotting in intact A431 cells that overexpress EGFR (Figure 3). In addition, the percentage of EGFR phosphorylation was calculated, and a dose-response curve was performed (Figure 4).
as §1
The inhibition of EGFR phosphorylation was studied as described in the literature. A431 cells (5 × 10^5 cells/well) were seeded in 6-well plates and incubated for 24 h. Then, the medium was replaced with fresh medium without fetal bovine serum. […] Protein band quantification was performed using Image-J software, and the percentage of EGFR phosphorylation inhibition was calculated using GraphPad Prism 9.0 software.

[1] = Lipophilicity, shake-flask distribution coefficient; assay type: physicochemical; settings: n-octanol/0.1 M phosphate buffer pH 7.4
Protocol: The pharmacokinetic profile of the studied compounds could be affected by their lipophilicity, expressed as the logarithm of the distribution coefficient (log Do/w). The lipophilicity of complexes 5b and 7b was determined in physiological conditions (n-octanol/0.1 M phosphate buffer pH 7.4). […] The presence of the pyridine ring in the chemical structure of complex […] increases the log D7.4 value, as expected.
The distribution coefficient of the 5b and 7b complexes was determined with the shake-flask method. The RP-HPLC isolated ^99mTc complexes (20 μL, ~75 kBq) were mixed with 2 mL of 1-octanol and 2 mL of phosphate buffer solution (PBS, 0.1 M, pH 7.4) in a centrifuge tube. The mixture was vortexed at room temperature for 2 min and centrifuged at 5000 rpm for 10 min. The radioactivity of each phase (200 μL) was counted in a gamma counter. The distribution coefficient was calculated by dividing the cpm/mL in the 1-octanol phase by those in the buffer, and the results were expressed as logD7.4. Each experiment was run in triplicate.

[2] = Biodistribution in healthy Swiss Albino mice after intravenous injection; assay type: in vivo; settings: i.v.
Protocol: The pharmacokinetic profile of complexes 5b and 7b was evaluated in Swiss Albino healthy male mice at 5, 60, and 240 min post intravenous injection. Table 4 presents the results of the biodistribution studies expressed as % Injected Dose (ID)/g ± Standard Deviation (±SD). […] The high lipophilicity characterizing both complexes justifies the rapid hepatobiliary excretion, given the decreasing activity in the liver and the increasing amount of radioactivity in the intestines. Complex 5b presented faster clearance and elimination in the intestines at 60 min p.i. 34.05% of the radioactivity excreted, compared to 29.89% at 240 min p.i. of complex 7b. Radioactivity in the urine remained low in general, however, the lower logD7.4 value of complex 7b explains the relatively higher activity in the urines (7.88 ± 0.71%) as it is slightly more hydrophilic than 5b. Moreover, the low uptake in the brain indicates almost no blood-brain barrier penetration, although the complexes have favorable physicochemical characteristics.
All the biodistribution experiments were carried out in compliance with the national laws and European protocols (2010/63/EU) related to the conduct of animal experimentation. Nine healthy Swiss Albino mice (male, 30 ± 3 g), divided into three groups of three, were injected with the HPLC-purified 5b or 7b complex in saline with 10% EtOH (0.1 mL, ~75 kBq) through the tail vein. For each group, the animals were sacrificed by cardiectomy under slight ether anesthesia 5, 60, and 240 min after the injection. The organs of interest were excised, weighed, and counted in an automatic gamma counter. The bladder and excreted urine were not weighed. The stomach and intestines were not emptied of food contents prior to radioactivity measurements. The percentage of injected dose per organ (%ID/organ) was calculated by comparison of sample radioactivity to standard solutions containing 10% of the injected dose. The calculation for blood and muscle was based on measured activity, sample weight, and body composition data (considering that blood and muscle comprise 7 and 43% of body weight). The percentage of injected dose per gram (%ID/g) was calculated by dividing the %ID/organ by the weight of the organ or tissue.

[3] = Stability of 99mTc complexes in reaction mixture and after isolation in PBS (RP-HPLC); assay type: physicochemical
Protocol: (§2) The stability of complexes 5b and 7b was studied in their reaction mixture and after isolation by HPLC for up to 24 h.
Stability of ^99mTc complexes in the reaction mixture: Samples of the ^99mTc complexes’ reaction mixture were stored at room temperature for up to 24 h. At 1, 6, and 24 h intervals, 100 μL of each sample was removed and analyzed by RP-HPLC.
Stability of isolated ^99mTc complexes: Purification and isolation of 5b and 7b complexes were performed by injection of the reaction mixture into RP-HPLC and isolation of the eluted compounds’ peaks, corresponding to the elution time of each complex. Followingly, 0.1 M PBS buffer solution (900 µL) was added to a vial containing 100 µL (50–120 MBq) of the isolated technetium-99m complex. The sample was incubated at 37 °C for up to 24 h and analyzed by RP-HPLC at 1, 6, and 24 h intervals.

[4] = Cysteine and histidine challenge of 99mTc complexes (RP-HPLC); assay type: physicochemical
Protocol: as §2
Cysteine and histidine challenge: Histidine (100 µL, 1 × 10^−2 M) or cysteine (100 µL, 1 × 10^−2 M) solution in 0.1 M PBS was mixed with 100 µL (50–120 MBq) of the RP-HPLC isolated ^99mTc complexes in 0.1 M PBS (800 µL). The mixtures were incubated at 37 °C for up to 24 h and analyzed by RP-HPLC at 1, 6, and 24 h intervals.

[5] = Homo sapiens, A-431, A431 cancer cell line, MTT, 72 h, mean ± SD of three experiments
[6] = A431 cancer cell line, MTT, 72 h, mean ± SD of three experiments

IC50 (A431 cells; Homo sapiens, A-431, 72 h): 2.3 ± 0.3 µM
Structure (SMILES): Nc1ccc2ncnc(Nc3cccc(Br)c3)c2c1 [Compound 1, 6-amino-4-[(3-bromophenyl)amino] quinazoline, reference compound]

IC50 (A431 cells; [5]): 25.6 ± 3.87 µM
Structure (SMILES): CCOC(=O)CN(CCCCCC(=O)Nc1ccc2ncnc(Nc3cccc(Br)c3)c2c1)Cc1ccccn1 [Compound 4, 6-(pyridine-2-methyl N, N, acetic ethyl ester-hexanoyl)-4-[(3-bromophenyl)amino]-quinazoline]

IC50 (EGFR): 0.0261 µM | IC50 (A431 cells; [6]): 8.85 ± 2.62 µM
Structure (SMILES): O=C([O-])CN(CCCCCC(=O)Nc1ccc2ncnc(Nc3cccc(Br)c3)c2c1)Cc1ccccn1.[C-]#[O+].[C-]#[O+].[C-]#[O+].[Re+] [Compound 5a, fac-[Re(NNO)(CO)3]]

IC50 (A431 cells; [5]): 4.12 ± 0.92 µM
Structure (SMILES): NC(CSCCCCCC(=O)Nc1ccc2ncnc(Nc3cccc(Br)c3)c2c1)C(=O)O (stereo not shown) [Compound 6, 6-(cysteine-N-hexanoyl)-4-[(3-bromophenyl)amino]-quinazoline]

IC50 (A431 cells; [6]): 29.6 ± 3.63 µM
Structure (SMILES): NC(CSCCCCCC(=O)Nc1ccc2ncnc(Nc3cccc(Br)c3)c2c1)C(=O)[O-].[C-]#[O+].[C-]#[O+].[C-]#[O+].[Re+] (stereo not shown) [Compound 7a, fac-[Re(SNO)(CO)3]]

log D7.4 [1]: 2.87 ± 0.32 | In vivo stability (low spleen and stomach radioactivity; no oxidation to pertechnetate/TcO2) [2]: stable in vivo | Blood %Injected Dose/g ([2]; 5 min): 1.06 ± 0.29 %Injected Dose/g | Brain %Injected Dose/g ([2]; 5 min): 0.06 ± 0.02 %Injected Dose/g | Heart %Injected Dose/g ([2]; 5 min): 0.97 ± 0.29 %Injected Dose/g | Intestines %Injected Dose/g ([2]; 5 min): 10.62 ± 1.17 %Injected Dose/g | Kidneys %Injected Dose/g ([2]; 5 min): 13.04 ± 2.34 %Injected Dose/g | Liver %Injected Dose/g ([2]; 5 min): 23.33 ± 3.63 %Injected Dose/g | Lungs %Injected Dose/g ([2]; 5 min): 1.19 ± 0.22 %Injected Dose/g | Muscle %Injected Dose/g ([2]; 5 min): 0.29 ± 0.11 %Injected Dose/g | Pancreas %Injected Dose/g ([2]; 5 min): 1.10 ± 0.11 %Injected Dose/g | Spleen %Injected Dose/g ([2]; 5 min): 0.92 ± 0.32 %Injected Dose/g | Stomach %Injected Dose/g ([2]; 5 min): 1.04 ± 0.10 %Injected Dose/g | Urine % ID ([2]; 5 min): 0.08 ± 0.06 % ID | Blood %Injected Dose/g ([2]; 60 min): 0.30 ± 0.09 %Injected Dose/g | Brain %Injected Dose/g ([2]; 60 min): 0.02 ± 0.01 %Injected Dose/g | Heart %Injected Dose/g ([2]; 60 min): 0.18 ± 0.03 %Injected Dose/g | Intestines %Injected Dose/g ([2]; 60 min): 26.81 ± 1.61 %Injected Dose/g | Kidneys %Injected Dose/g ([2]; 60 min): 1.94 ± 0.28 %Injected Dose/g | Liver %Injected Dose/g ([2]; 60 min): 4.88 ± 0.47 %Injected Dose/g | Lungs %Injected Dose/g ([2]; 60 min): 0.26 ± 0.04 %Injected Dose/g | Muscle %Injected Dose/g ([2]; 60 min): 0.13 ± 0.12 %Injected Dose/g | Pancreas %Injected Dose/g ([2]; 60 min): 0.24 ± 0.05 %Injected Dose/g | Spleen %Injected Dose/g ([2]; 60 min): 0.11 ± 0.02 %Injected Dose/g | Stomach %Injected Dose/g ([2]; 60 min): 0.97 ± 0.22 %Injected Dose/g | Urine % ID ([2]; 60 min): 5.83 ± 0.02 % ID | Blood %Injected Dose/g ([2]; 240 min): 0.18 ± 0.04 %Injected Dose/g | Brain %Injected Dose/g ([2]; 240 min): 0.07 ± 0.06 %Injected Dose/g | Heart %Injected Dose/g ([2]; 240 min): 0.12 ± 0.00 %Injected Dose/g | Intestines %Injected Dose/g ([2]; 240 min): 29.89 ± 2.41 %Injected Dose/g | Kidneys %Injected Dose/g ([2]; 240 min): 1.12 ± 0.03 %Injected Dose/g | Liver %Injected Dose/g ([2]; 240 min): 4.46 ± 0.16 %Injected Dose/g | Lungs %Injected Dose/g ([2]; 240 min): 0.25 ± 0.08 %Injected Dose/g | Muscle %Injected Dose/g ([2]; 240 min): 0.03 ± 0.00 %Injected Dose/g | Pancreas %Injected Dose/g ([2]; 240 min): 0.12 ± 0.02 %Injected Dose/g | Spleen %Injected Dose/g ([2]; 240 min): 0.09 ± 0.02 %Injected Dose/g | Stomach %Injected Dose/g ([2]; 240 min): 0.96 ± 0.06 %Injected Dose/g | Urine % ID ([2]; 240 min): 7.88 ± 0.71 % ID | %RCP in PBS for 24 h ([3]; 0.1 M PBS, 37 °C, 24 h): 99 ± 1% | Stability in reaction mixture and after isolation by HPLC ([3]; up to 24 h, room temperature or 37 °C): No decomposition | Stability after incubation with excess of histidine and cysteine ([4]; 24 h, molar ratio 1/1000, HPLC): > 95% | %RCP in Cysteine for 24 h ([4]; excess cysteine, 37 °C): 95 ± 1% | %RCP in Histidine for 24 h ([4]; excess histidine, 37 °C): 95 ± 2%
Structure (SMILES): NC(CSCCCCCC(=O)Nc1ccc2ncnc(Nc3cccc(Br)c3)c2c1)C(=O)[O-].[99Tc+].[C-]#[O+].[C-]#[O+].[C-]#[O+] (stereo not shown) [Compound 7b]
